Data from US10167279B2 (NOVARTIS AG, priority 2014, dated 2019).

Molecular target: C-Raf FL (Homo sapiens (Human), UniProt P04049, Y340E/Y341E)
Experiment: In vitro Raf activity determination (Alpha Screen, phospho-MEK), C-Raf FL (full length, Y340E/Y341E)
Type: biochemical
Conditions: ATP 1 μM; 60 min pre-incubation; 1 hour reaction; column head does not say FL or TR
Method in brief: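 Sf9-expressed C-Raf incubated with biotinylated kinase-dead MEK1 (K97R) in 50 mM Tris pH 7.5, 15 mM MgCl2, 0.01% BSA, 1 mM DTT with compound, 60 min at room temperature. Phospho-MEK detected by anti-p-MEK AlphaScreen luminescence; IC50 by non-linear regression.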

C-Raf FL, sequence (P04049 whole entry Y340E/Y341E): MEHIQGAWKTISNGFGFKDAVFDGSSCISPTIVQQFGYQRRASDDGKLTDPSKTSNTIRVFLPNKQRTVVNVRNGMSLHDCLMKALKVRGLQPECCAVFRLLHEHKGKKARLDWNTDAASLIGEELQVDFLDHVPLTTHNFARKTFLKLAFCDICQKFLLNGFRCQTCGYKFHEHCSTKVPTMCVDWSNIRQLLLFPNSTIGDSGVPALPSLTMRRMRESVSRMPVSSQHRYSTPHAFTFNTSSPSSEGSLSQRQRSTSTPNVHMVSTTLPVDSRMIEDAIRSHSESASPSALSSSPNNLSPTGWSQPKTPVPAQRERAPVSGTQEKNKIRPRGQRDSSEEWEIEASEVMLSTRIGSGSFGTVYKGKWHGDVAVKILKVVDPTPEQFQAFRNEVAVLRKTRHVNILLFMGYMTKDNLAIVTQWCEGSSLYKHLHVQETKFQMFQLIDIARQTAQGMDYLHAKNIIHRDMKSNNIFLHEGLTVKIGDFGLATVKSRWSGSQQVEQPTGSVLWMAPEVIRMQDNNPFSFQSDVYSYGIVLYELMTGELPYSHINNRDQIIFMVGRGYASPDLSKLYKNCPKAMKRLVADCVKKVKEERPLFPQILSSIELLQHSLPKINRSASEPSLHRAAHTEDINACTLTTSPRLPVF
C-Raf FL, sequence (P63104 whole entry partner): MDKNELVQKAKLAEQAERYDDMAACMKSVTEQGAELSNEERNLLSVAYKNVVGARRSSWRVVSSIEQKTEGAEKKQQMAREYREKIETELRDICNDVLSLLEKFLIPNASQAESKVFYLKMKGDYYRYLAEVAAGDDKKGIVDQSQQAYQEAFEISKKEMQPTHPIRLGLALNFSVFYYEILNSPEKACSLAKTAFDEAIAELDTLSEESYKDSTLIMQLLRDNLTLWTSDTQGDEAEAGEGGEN

IC50 [nM]	SMILES
0.005	COc1cc(C(=O)Nc2ccc(C)c(-c3cc(OCCO)nc(C4CCOCC4)c3)c2)ncn1 [Example 267, N-(3-(2-(2-hydroxyethoxy)-6-(tetrahydro-2H-pyran-4-yl)pyridin-4-yl)-4-methylphenyl)-6-methoxypyrimidine-4-carboxamide]
4	Cc1ccc(NC(=O)c2cc(C(F)(F)F)c[nH]c2=O)cc1-c1cc(OCCO)nc(C2CCOCC2)c1 [Example 252, N-(3-(2-(2-hydroxyethoxy)-6-(terahydro-2H-pyran-4-yl)pyridin-4-yl)-4-methylphenyl)-2-oxo-5-(trifluoromethyl)-1,2-dihydropyridine-3-carboxamide]
0.871	COc1ncc(-c2cc(NC(=O)c3cc(C(F)(F)F)cc(C(C)(C)N)n3)ccc2C)cc1C1(C(F)F)COC1 [Example 149, 6-(2-aminopropan-2-yl)-N-(3-(5-(3-(difluoromethyl)oxetan-3-yl)-6-methoxypyridin-3-yl)-4-methylphenyl)-4-(trifluoromethyl)picolin-amide]
0.103	COC1(c2cc(-c3cc(NC(=O)c4ccnc(C(F)(F)F)c4)ccc3C)cnc2OCCO)COC1 [Example 59, N-(3-(6-(2-hydroxyethoxy)-5-(3-methoxyoxetan-3-yl)pyridin-3-yl)-4-methylphenyl)-2-(trifluoromethyl)isonicotin-amide]
0.3	Cc1ccc(NC(=O)c2cc(C(F)(F)F)ccn2)cc1-c1cc2c(c(C3CCOCC3)c1)NC(=O)C(C)(CO)O2 (stereo not drawn) [Example 192, N-(3-(2-(hydroxymethyl)-2-methyl-3-oxo-5-(tetrahydro-2H-pyran-4-yl)-3,4-dihydro-2H-benzo [b][1,4]oxazin-7-yl)-4-methylphenyl)-4-(trifluoromethyl) picolinamide]
2	CCOc1ncc(-c2cc(NC(=O)c3cnnc(C(C)(C)C#N)c3)cnc2C)cc1C1CCOCC1 [Example 161]
0.7	Cc1ccc(NC(=O)c2cc(C(F)(F)F)ccn2)cc1-c1cc(OCCO)nc(C2CCOCC2O)c1 (single isomer, unassigned) [Example 248]
3.47	Cc1ncc(NC(=O)c2ccnc(C(C)(C)F)c2)cc1-c1cnc(OCCO)c(C2(F)COC2)c1 [Example 40, N-(5′-(3-fluorooxetan-3-yl)-6′-(2-hydroxyethoxy)-2-methyl-[3,3′-bipyridin]-5-yl)-2-(2-fluoropropan-2-yl)isonicotinamide]
3	Cc1ccc(NC(=O)c2ccnc(C(C)(C)F)c2)cc1-c1cc(OCCO)nc(C2CCOCC2O)c1 (stereo not drawn) [Example 244, 2-(2-fluoropropan-2-yl)-N-(3-(2-(2-hydroxyethoxy)-6-(3-hydroxytetrahydro-2H-pyran-4-yl)pyridin-4-yl)-4-methylphenyl) isonicotinamide]
1	Cc1ncc(NC(=O)c2ccc(CN)c(C(F)(F)F)c2)cc1-c1cccc(C2(C)COC2)c1 [Example 8]
0.3	CCOc1ncc(-c2cc(NC(=O)c3ccnc(C(F)(F)F)c3)ccc2C)cc1C1(C#N)CCOC1 (stereo not drawn) [Example 168, N-(3-(5-(3-cyanotetrahydrofuran-3-yl)-6-ethoxypyridin-3-yl)-4-methylphenyl)-2-(trifluoromethyl) isonicotinamide]
0.3	Cc1ccc(NC(=O)c2cc(C(F)(F)F)ccn2)cc1-c1cc2c(c(C3CCOCC3)c1)OC(C)(CO)C(=O)N2 (stereo not drawn) [Example 202, N-(3-(2-(hydroxymethyl)-2-methyl-3-oxo-8-(tetrahydro-2H-pyran-4-yl)-3,4-dihydro-2H-benzo[b][1,4]oxazin-6-yl)-4-methylphenyl)-4-(trifluoromethyl) picolinamide]
2	CCOc1ncc(-c2cc(NC(=O)c3ccnc(C(C)(C)C#N)c3)ccc2C)cc1C1(C#N)CCOC1 (stereo not drawn) [Example 169, 2-(2-cyanopropan-2-yl)-N-(3-(5-(3-cyanotetrahydrofuran-3-yl)-6-ethoxypyridin-3-yl)-4-methylphenyl) isonicotinamide]
2.15	Cc1ncc(NC(=O)c2cccc(C(F)(F)F)c2)cc1-c1cc(OCCO)nc(C2(F)COC2)c1 [Example 52, N-(2′-(3-fluorooxetan-3-yl)-6′-(2-hydroxyethoxy)-2-methyl-[3,4′-bipyridin]-5-yl)-3-(trifluoromethyl)benzamide]
0.02	CCOc1nnc(-c2cc(NC(=O)c3ccnc(C(C)(F)F)c3)ccc2C)cc1C1CCOCC1 [Example 225, 2-(1,1-difluoroethyl)-N-(3-(6-ethoxy-5-(tetrahydro-2H-pyran-4-yl)pyridazin-3-yl)-4-methylphenyl) isonicotinamide]
2	Cc1ncc(NC(=O)c2ccc(CN)c(C(F)(F)F)c2)cc1-c1cc(C2COC2)c2nccn2n1 [Example 10, 4-(aminomethyl)-N-(6-methyl-5-(8-(oxetan-3-yl)imidazo[1,2-b]pyridazin-6-yl)pyridin-3-yl)-3-(trifluoromethyl)benzamide]
6	Cc1ccc(NC(=O)c2ccnc(C(C)(C)C#N)c2)cc1-c1cc(OCCO)nc(C2CCOCC2O)c1 (stereo not drawn) [Example 246]

IC50 [nM]	SMILES
0.3	Cc1ccc(NC(=O)c2ccnc(C(F)(F)F)c2)cc1-c1cc(OCCO)nc(C2(CF)CCOCC2)c1 [Example 210]
0.331	Cc1ccc(NC(=O)c2cccc(C(F)(F)F)c2)cc1-c1cc(NCCO)nc(C2CCOCC2)c1 [Example 174]
3	COc1ncc(-c2cc(C(=O)Nc3cc(C(C)(C)N)cc(C(F)(F)F)c3)ccc2C)cc1C1(O)COC1 [Example 150, N-(3-(2-aminopropan-2-yl)-5-(trifluoromethyl)phenyl)-3-(5-(3-hydroxyoxetan-3-yl)-6-methoxypyridin-3-yl)-4-methylbenzamide]
1.28	Cc1ncc(NC(=O)c2ccnc(C(C)(C)F)c2)cc1-c1cc(OCCO)nc(C2(CF)COC2)c1 [Example 133, N-(2′-(3-(fluoromethyl)oxetan-3-yl)-6′-(2-hydroxyethoxy)-2-methyl-[3,4′-bipyridin]-5-yl)-2-(2-fluoropropan-2-yl)isonicotinamide]
2	CCOc1ncc(-c2cc(NC(=O)c3ccnc(C(C)(C)C#N)c3)cnc2C)cc1C1(CF)CCOC1 (stereo not drawn) [Example 166, 2-(2-cyanopropan-2-yl)-N-(6′-ethoxy-5′-(3-(fluoromethyl)tetrahydrofuran-3-yl)-2-methyl-[3,3′-bipyridin]-5-yl)isonicotinamide]
0.5	Cc1ccc(NC(=O)c2ccnc(C(C)(C)C#N)c2)cc1-c1cc(OCCO)nc(C2(C)CCOCC2)c1 [Example 208, 2-(2-cyanopropan-2-yl)-N-(3-(2-(2-hydroxyethoxy)-6-(4-methyltetrahydro-2H-pyran-4-yl)pyridin-4-yl)-4-methylphenyl) isonicotinamide]
0.04	COC1(c2cc(-c3cc(NC(=O)c4cc(C(F)(F)F)ccn4)ccc3C)cc(NCCO)n2)COC1 [Example 154, N-(3-(2-((2-hydroxyethyl)amino)-6-(3-methoxyoxetan-3-yl)pyridin-4-yl)-4-methylphenyl)-4-(trifluoromethyl)picolin-amide]
0.1	Cc1ccc(NC(=O)c2ccnc(C(F)(F)F)c2)cc1-c1cc(C2CCOCC2)c(OC(C)C)nn1 [Example 316, N-(3-(6-isopropoxy-5-(tetrahydro-2H-pyran-4-yl)pyridazin-3-yl)-4-methylphenyl)-2-(trifluoromethyl) isonicotinamide]
2	CCOc1nnc(-c2cc(NC(=O)c3ccnc(C(C)(C)F)c3)cnc2C)cc1C1CCOCC1 [Example 233, N-(5-(6-ethoxy-5-(tetrahydro-2H-pyran-4-yl)pyridazin-3-yl)-6-methylpyridin-3-yl)-2-(2-fluoropropan-2-yl) isonicotinamide]
0.4	Cc1ncc(NC(=O)c2cccc(C(F)(F)F)c2)cc1-c1cc(C2(C)COC2)c(OCCO)nn1 [Example 16, N-(5-(6-(2-hydroxyethoxy)-5-(3-methyloxetan-3-yl)pyridazin-3-yl)-6-methylpyridin-3-yl)-3-(trifluoromethyl)benzamide]
0.01	Cc1ccc(NC(=O)c2ccnc(C(F)(F)CF)c2)cc1-c1cc(OC[C@H](O)CO)nc(C2CCOCC2)c1 [Example 273, (R)-N-(3-(2-(2,3-dihydroxypropoxy)-6-(tetrahydro-2H-pyran-4-yl)pyridin-4-yl)-4-methylphenyl)-2-(1,1,2-trifluoroethyl) isonicotinamide]
1.99	Cc1ncc(NC(=O)c2cccc(C(F)(F)F)c2)cc1-c1cc(C2CCOCC2)nc(N2CCC(O)CC2)c1 [Example 183, N-(2′-(4-hydroxypiperidin-1-yl)-2-methyl-6′-(tetrahydro-2H-pyran-4-yl)-[3,4′-bipyridin]-5-yl)-3-(trifluoromethyl) benzamide]
0.3	Cc1ccc(NC(=O)c2ccnc(C3(C(F)(F)F)CC3)c2)cc1-c1cc(OCCO)nc(C2CCOCC2)c1 [Example 259, N-(3-(2-(2-hydroxyethoxy)-6-(tetrahydro-2H-pyran-4-yl)pyridin-4-yl)-4-methylphenyl)-2-(1-(trifluoromethyl)cyclopropyl) isonicotinamide]
0.1	CCOc1nnc(-c2cc(NC(=O)c3cnc(N4CCN(CC)CC4)c(C(F)(F)F)c3)ccc2C)cc1C1CCOCC1 [Example 241, N-(3-(6-ethoxy-5-(tetrahydro-2H-pyran-4-yl)pyridazin-3-yl)-4-methylphenyl)-6-(4-ethylpiperazin-1-yl)-5-(trifluoromethyl) nicotinamide]
0.795	Cc1ccc(NC(=O)c2ccnc(C(F)(F)F)c2)cc1-c1cc(OCCO)nc(C2CCOCC2)c1 [Example 190, N-(3-(2-(2-hydroxyethoxy)-6-(tetrahydro-2H-pyran-4-yl)pyridin-4-yl)-4-methylphenyl)-2-(trifluoromethyl) isonicotinamide]
0.2	Cc1ccc(NC(=O)c2cc(C(F)(F)F)ccn2)cc1-c1cc(OCCO)nc(C2(C)CCOCC2)c1 [Example 209, N-(3-(2-(2-hydroxyethoxy)-6-(4-methyltetrahydro-2H-pyran-4-yl)pyridin-4-yl)-4-methylphenyl)-4-(trifluoromethyl) picolinamide]
